ChEMBL document CHEMBL1201862, “PubChem BioAssay data set” (2004)
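Compound exposure: 48 hours, 5 concentrations, 96-well plates. GI50 marks 50% less growth.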 The source made the active and inactive calls. Cut-off read from the data, not from the text of the source: active = GI50 up to about 1.1 µM and inactive = higher.

Experiments:
Experiment in all cases: NCI-60 cell line screen, 48 h
[1] = system: A498
[2] = system: MDA-MB-435
[3] = system: EKVX
[4] = system: CCRF-CEM
[5] = system: NCI-H522
[6] = system: SF-268
[7] = system: OVCAR-3
[8] = system: RXF 393
[9] = system: CAKI-1
[10] = system: HT-29
[11] = system: NCI-H23
[12] = system: SW-620
[13] = system: RPMI-8226
[14] = system: NCI-H226
[15] = system: HCT-116
[16] = system: SNB-19
[17] = system: A549
[18] = system: SN12C
[19] = system: NCI/ADR-RES
[20] = system: Malme-3M

Measured: GI50

CC(=O)O[C@H]1C[C@H]2C(=S)Nc3ccccc3C(=S)N2C1
inactive: [1] > 100 µM | [2] > 100 µM | [3] > 100 µM | [4] > 100 µM | [5] > 100 µM | [6] > 100 µM | [7] > 100 µM | [8] > 100 µM | [9] > 100 µM | [10] > 100 µM | [11] > 100 µM | [12] > 100 µM | [13] > 100 µM | [14] > 100 µM | [15] > 100 µM | [16] > 100 µM | [17] > 100 µM | [18] > 100 µM | [19] > 100 µM | [20] > 100 µM

O=C(CC(=O)c1ccccc1NC1=Cc2ccccc2C(=O)C1=O)C(=O)NC1=C(Cl)C(=O)c2ccccc2C1=O
inactive: [1] 14.7 µM | [2] 1.85 µM | [3] 7.98 µM | [4] 2.03 µM | [5] 1.91 µM | [6] 2.93 µM | [7] 1.51 µM | [8] 2.34 µM | [9] 8.28 µM | [10] 5.26 µM | [11] 1.57 µM | [12] 2.43 µM | [13] 1.56 µM | [14] 7.52 µM | [15] 2.31 µM | [16] 5.56 µM | [17] 4.55 µM | [18] 1.8 µM | [19] 3 µM | [20] 1.22 µM

CNC(=O)CCCN(C)C(=O)CCCCC(=O)N(C)C
inactive: [1] 34.4 µM | [2] > 56 µM | [3] > 57.9 µM | [4] 40.5 µM | [5] > 58.6 µM | [6] > 60.8 µM | [7] > 92.3 µM | [8] > 100 µM | [9] > 37.6 µM | [10] > 57.1 µM | [11] > 60.1 µM | [12] > 59.6 µM | [13] > 57.1 µM | [14] > 67.8 µM | [15] > 57.5 µM | [16] > 60.1 µM | [17] > 57.1 µM | [18] > 61.1 µM | [19] > 59 µM | [20] 33.5 µM

O=C1CNCCCN2CCN(CCCNCC(=O)Nc3ccc(cc3)S(=O)(=O)c3ccc(cc3)NC(=O)CNCCCN3CCN(CCCNCC(=O)Nc4ccc(cc4)S(=O)(=O)c4ccc(cc4)N1)CC3)CC2
inactive: [1] 20.7 µM | [2] 20.9 µM | [3] 36.6 µM | [4] 1.57 µM | [5] 10.7 µM | [6] 22.9 µM | [7] 41.7 µM | [8] 28.6 µM | [9] 30.1 µM | [10] 27.2 µM | [11] 30.3 µM | [12] 31.4 µM | [13] 29.2 µM | [14] > 47.1 µM | [15] 21.5 µM | [16] 52.2 µM | [17] 57.3 µM | [18] > 45.3 µM | [19] 40.3 µM | [20] 11.9 µM

COC(=O)C(N)CCCC(N)C(=O)NC(C)C(=O)NC(CCC(=O)NCCNCCNc1c2ccccc2nc2cccc([N+](=O)[O-])c12)C(N)=O (stereo not given)
inactive: [1] 17.4 µM | [2] 6.93 µM | [3] 10.2 µM | [4] 7.59 µM | [5] 1.65 µM | [6] 2.44 µM | [7] 12.3 µM | [8] 8.51 µM | [9] 27.9 µM | [10] 13.7 µM | [11] 3.03 µM | [12] 9.86 µM | [13] 5.32 µM | [14] 10.9 µM | [15] 4.63 µM | [16] 18.5 µM | [17] 4.67 µM | [18] 12.8 µM | [19] 80.5 µM | [20] 11.3 µM
